{"source": "patent EP0491813B1", "about": "“BIODEGRADABLE CONTROLLED RELEASE MATRICES” (priority 1989, dated 1991)", "assay": "dermal toxicity test with moistened product (US EPA guidelines), samples secured to skin for 24 hours", "conditions": "rabbit, in vivo, topical or ocular, male rabbits, 24 hours exposure, survivors observed for 14 days, read-out: LD50 DOSAGE", "experimental": "Dermal toxicity tests using this formulation, a conventional synthetic polymer formulation comprising 10% w/w phorate and pure phorate (10% w/w) were performed on male rabbits by securing samples to the skin of the test animals for a period of 24 hours. At the expiry of this period rabbits were examined for mortality and surviving rabbits observed for 14 days before sacrifice and examination. The LD50 values are shown below in table 3."}
{"smiles": "CCOP(=S)(OCC)SCSCC", "note": "[Technical grade phorate (10% w/w), phorate]", "values": [{"measurement": "LD50", "value": 5.2, "unit": "mg/kg"}]}
